Data taken from patent US20230286968A1, “ARYLOXAZOLO SPIRAL RING DERIVATIVES FOR THE TREATMENT AND PROPHYLAXIS OF HEPATITIS B VIRUS INFECTION” (Hoffmann-La Roche Inc., priority 2020, published 2023).

How the values were obtained:
HBeAg = assay: PHH natural infection assay, HBeAg (alphalisa); assay type: cell-based, HBV; settings: Hepatitis B virus, Hepatocyte, read-out: HBeAg IC50, HBV-infected primary human hepatocytes, supernatant, alphalisa
Procedure: (§1) Detailed procedures regarding primary human hepatocyte (PHH) HBV natural infection assay are described as below. One tube of frozen PHH (10 million cells) is thawed in 37° C. water bath and then transferred to 20 mL of PHH thawing medium (Sigma, InVitroGRO HT Medium, Cat. S03319) with gently mixing. The cells were then centrifuged at […] for 5 min, the supernatant was discarded and the tube was refilled with 25 mL of PHH plating medium (Sigma, InVitroGRO CP Medium, Cat. S03317). The tube was shaken very gently to re-suspend all cells, and then 50 μL of cells were transferred to each well 384-well collagen I coated plate with appropriate liquid handling equipment, e.g. Integra VIAFLO384 or Agilent Bravo. The cells were then cultured for 24 hours in a cell incubator. For HBV infection, after PHH attachment on the culture plate, the plating medium was removed and replenished with PHH culture medium containing HBV virus. The PHH culture medium was prepared with Dulbecco's Modified Eagle Medium (DMEM)/F12 (1:1 in volume ratio) containing 10% fetal bovine serum (Gibco, Cat. 10099141), 5 ng/mL human epidermal growth factor (Gibco, Cat.PHG0311L), 20 ng/mL dexamethasone (Sigma, Cat.D4902-100 mg), 250 ng/mL human recombinant insulin (Gibco, Cat.41400045) and 100 U/mL penicillin. HBV virus at 200 genome equivalent (GE) per cell with 4% PEG8000 (Sigma, Cat.P1458) containing culture medium were added to the PHH culture medium for infection. The cells were then cultured for 24 hours in cell incubator. Then the cell culture supernatant was removed. The HBV-infected PHH were cultured with sandwich culture method with PHH culture medium containing […] and 0.25 mg/mL matrix gel for 72 hours. The supernatant was then refreshed with PHH culture medium containing different concentrations of testing compounds for two times with 72-hour interval. At the end of treatment, the supernatant was collected for viral markers measurements, including HBsAg, HBeAg, HBV DNA and cytotoxicity. HBsAg and HBeAg were detected using alphalisa method using their specific antibodies. For HBV DNA detection, HBV DNA Quantitative Fluorescence Diagnostic Kit (Sansure Biotech Inc.) was used following the manufacture's protocol. Cytotoxicity was determined using Cell Counting Kit-8 (CCK8, Dojindo Molecular Technologies, Inc.).
(§2) The compounds of the present invention were tested for their capacity to inhibit HBsAg and HBeAg as described herein.

[1] = Cytotoxicity in PHH natural infection assay (Cell Counting Kit-8); assay type: cell-based; settings: HBV-infected primary human hepatocytes, CCK8
Procedure: as §1

HBsAg = assay: PHH natural infection assay, HBsAg (alphalisa); assay type: cell-based, HBV; settings: Hepatitis B virus, Hepatocyte, read-out: HBsAg IC50, HBV-infected primary human hepatocytes, supernatant, alphalisa
Procedure: as §1, §2

SMILES | IC50 (HBeAg) | CC50 at 144 h [1] | IC50 (HBsAg)
NS(=O)(=O)CCCC(=O)NC1CC2(C1)CC(c1nc3cc(Cl)ccc3o1)C2 (stereo not drawn) [Example 39, N-[6-(5-chloro-1,3-benzoxazol-2-yl)spiro[3.3]heptan-2-yl]-4-sulfamoyl-butanamide] | 4.8 µM | > 10 µM | 5.98 µM
O=C(NC1CC2(C1)CC(c1nc3cc(Cl)ccc3o1)C2)C1CCS(=O)(=O)C1 (stereo not drawn) [Example 40, N-[6-(5-chloro-1,3-benzoxazol-2-yl)spiro[3.3]heptan-2-yl]-1,1-dioxo-thiolane-3-carboxamide] | 5.09 µM | > 100 µM | 5.72 µM
O=C(NC1CC2(C1)CC(c1nc3ncccc3o1)C2)C1CCS(=O)(=O)C1 (stereo not drawn) [Example 41, N-(6-oxazolo[4,5-b]pyridin-2-ylspiro[3.3]heptan-2-yl)-1,1-dioxo-thiolane-3-carboxamide] | 2.32 µM | > 100 µM | 5.28 µM
O=C(NC1CC2(C1)CC(c1nc3cc(Cl)ccc3o1)C2)C1CCCS1(=O)=O (stereo not drawn) [Example 42, N-[6-(5-chloro-1,3-benzoxazol-2-yl)spiro[3.3]heptan-2-yl]-1,1-dioxo-thiolane-2-carboxamide] | 5.67 µM | > 100 µM | 9.7 µM
O=C(NC1CC2(C1)CC(c1nc3cc(Cl)ccc3o1)C2)C1CNS(=O)(=O)C1 (stereo not drawn) [Example 43, N-[6-(5-chloro-1,3-benzoxazol-2-yl)spiro[3.3]heptan-2-yl]-1,1-dioxo-1,2-thiazolidine-4-carboxamide] | 3.81 µM | > 10 µM | 9.04 µM
O=C(NC1CC2(C1)CC(c1nc3cc(Cl)ccc3o1)C2)C1CN(Cc2ccccc2)S(=O)(=O)C1 (stereo not drawn) [Example 44, 2-benzyl-N-[6-(5-chloro-1,3-benzoxazol-2-yl)spiro[3.3]heptan-2-yl]-1,1-dioxo-1,2-thiazolidine-4-carboxamide] | 4.6 µM | > 10 µM | 4.44 µM
O=C(NC1CC2(C1)CC(c1nc3cc(Cl)ccc3o1)C2)C1CCS(=O)(=O)N1 (stereo not drawn) [Example 45, N-[6-(5-chloro-1,3-benzoxazol-2-yl)spiro[3.3]heptan-2-yl]-1,1-dioxo-1,2-thiazolidine-3-carboxamide] | 1.36 µM | > 100 µM | 2.41 µM
CN1C(C(=O)NC2CC3(C2)CC(c2nc4cc(Cl)ccc4o2)C3)CCS1(=O)=O (stereo not drawn) [Example 46, N-[6-(5-chloro-1,3-benzoxazol-2-yl)spiro[3.3]heptan-2-yl]-2-methyl-1,1-dioxo-1,2-thiazolidine-3-carboxamide] | 3.41 µM | > 10 µM | 3.9 µM
O=C(CC1CCCS1(=O)=O)NC1CC2(C1)CC(c1nc3cc(Cl)ccc3o1)C2 (stereo not drawn) [Example 47, N-[6-(5-chloro-1,3-benzoxazol-2-yl)spiro[3.3]heptan-2-yl]-2-(1,1-dioxothiolan-2-yl)acetamide] | 2.1 µM | > 100 µM | 3.46 µM
CC1(C(=O)NC2CC3(C2)CC(c2nc4cc(Cl)ccc4o2)C3)CCS(=O)(=O)C1 (stereo not drawn) [Example 48, N-(6-(5-chlorobenzo[d]oxazol-2-yl)spiro[3.3]heptan-2-yl)-3-methyltetrahydrothiophene-3-carboxamide 1,1-dioxide] | 1.1 µM | > 100 µM | 2.62 µM
O=C(NC1CC2(C1)CC(c1nc3cc(Cl)ccc3o1)C2)C1CS(=O)(=O)C1 (stereo not drawn) [Example 49, N-[6-(5-chloro-1,3-benzoxazol-2-yl)spiro[3.3]heptan-2-yl]-1,1-dioxo-thietane-3-carboxamide] | 2.61 µM | 96.1 µM | 3.27 µM
O=C(CC1CS(=O)(=O)C1)NC1CC2(C1)CC(c1nc3cc(Cl)ccc3o1)C2 (stereo not drawn) [Example 50, N-[6-(5-chloro-1,3-benzoxazol-2-yl)spiro[3.3]heptan-2-yl]-2-(1,1-dioxothietan-3-yl)acetamide] | 1.36 µM | > 100 µM | 1.96 µM
O=C(NC1CC2(C1)CC(c1nc3cc(Cl)ccc3o1)C2)C1CC2(C1)CS(=O)(=O)C2 (stereo not drawn) [Example 52, N-[6-(5-chloro-1,3-benzoxazol-2-yl)spiro[3.3]heptan-2-yl]-2,2-dioxo-2-thiaspiro[3.3]heptane-6-carboxamide] | 5.71 µM | > 100 µM | 9.99 µM
O=C(NC1CC2(C1)CC(c1nc3cc(Cl)ccc3o1)C2)C1CCS(=O)(=O)CC1 (stereo not drawn) [Example 53, N-[6-(5-chloro-1,3-benzoxazol-2-yl)spiro[3.3]heptan-2-yl]-1,1-dioxo-thiane-4-carboxamide] | 5.23 µM | > 100 µM | 6.7 µM
CC1(C(=O)NC2CC3(C2)CC(c2nc4cc(Cl)ccc4o2)C3)CCS(=O)(=O)CC1 (stereo not drawn) [Example 54, N-(6-(5-chlorobenzo[d]oxazol-2-yl)spiro[3.3]heptan-2-yl)-4-methyltetrahydro-2H-thiopyran-4-carboxamide 1,1-dioxide] | 1.86 µM | > 100 µM | 1.94 µM
O=C(CC1CCCS(=O)(=O)C1)NC1CC2(C1)CC(c1nc3cc(Cl)ccc3o1)C2 (stereo not drawn) [Example 55, N-[6-(5-chloro-1,3-benzoxazol-2-yl)spiro[3.3]heptan-2-yl]-2-(1,1-dioxothian-3-yl)acetamide] | 2.6 µM | 78.9 µM | 3.39 µM
O=C(CN1CCCCS1(=O)=O)NC1CC2(C1)CC(c1nc3cc(Cl)ccc3o1)C2 (stereo not drawn) [Example 56, N-[6-(5-chloro-1,3-benzoxazol-2-yl)spiro[3.3]heptan-2-yl]-2-(1,1-dioxothiazinan-2-yl)acetamide] | 2.06 µM | > 100 µM | 2.29 µM
O=C(NC1CC2(C1)CC(c1nc3cc(C(F)(F)F)ccc3o1)C2)C1CCS(=O)(=O)CC1 (stereo not drawn) [Example 57, 1,1-dioxo-N-[6-[5-(trifluoromethyl)-1,3-benzoxazol-2-yl]spiro[3.3]heptan-2-yl]thiane-4-carboxamide] | 3.59 µM | > 100 µM | 4.47 µM
CC(C)S(=O)(=O)NC1CC2(C1)CC(c1nc3cc(Cl)ccc3o1)C2 (stereo not drawn) [Example 58, N-[6-(5-chloro-1,3-benzoxazol-2-yl)spiro[3.3]heptan-2-yl]propane-2-sulfonamide] | 5.97 µM | > 100 µM | 6.19 µM
CCNC(=O)NC1CC2(C1)CC(c1nc3cc(Cl)ccc3o1)C2 (stereo not drawn) [Example 59, 1-[6-(5-chloro-1,3-benzoxazol-2-yl)spiro[3.3]heptan-2-yl]-3-ethyl-urea] | 3.94 µM | > 100 µM | 8.6 µM
CCCNC(=O)NC1CC2(C1)CC(c1nc3cc(Cl)ccc3o1)C2 (stereo not drawn) [Example 60, 1-[6-(5-chloro-1,3-benzoxazol-2-yl)spiro[3.3]heptan-2-yl]-3-propyl-urea] | 5.1 µM | > 100 µM | 7.19 µM
CC(C)NC(=O)NC1CC2(C1)CC(c1nc3cc(Cl)ccc3o1)C2 (stereo not drawn) [Example 61, 1-[6-(5-chloro-1,3-benzoxazol-2-yl)spiro[3.3]heptan-2-yl]-3-isopropyl-urea] | 3.82 µM | > 100 µM | 4.71 µM
CCN(C)C(=O)NC1CC2(C1)CC(c1nc3cc(Cl)ccc3o1)C2 (stereo not drawn) [Example 62, 3-[6-(5-chloro-1,3-benzoxazol-2-yl)spiro[3.3]heptan-2-yl]-1-ethyl-1-methyl-urea] | 2.12 µM | > 100 µM | 3.23 µM
O=C(NCC1CCOC1)NC1CC2(C1)CC(c1nc3cc(Cl)ccc3o1)C2 (stereo not drawn) [Example 63, 1-[6-(5-chloro-1,3-benzoxazol-2-yl)spiro[3.3]heptan-2-yl]-3-(tetrahydrofuran-3-ylmethyl)urea] | 5.3 µM | > 100 µM | 8.02 µM
O=C(NCC1CC(O)C1)NC1CC2(C1)CC(c1nc3cc(Cl)ccc3o1)C2 (stereo not drawn) [Example 64, 1-[6-(5-chloro-1,3-benzoxazol-2-yl)spiro[3.3]heptan-2-yl]-3-[(3-hydroxycyclobutyl)methyl]urea] | 4.47 µM | 84.8 µM | 5.62 µM
O=C(NC1CCOC1)NC1CC2(C1)CC(c1nc3cc(Cl)ccc3o1)C2 (stereo not drawn) [Example 65, 1-[6-(5-chloro-1,3-benzoxazol-2-yl)spiro[3.3]heptan-2-yl]-3-tetrahydrofuran-3-yl-urea] | 3.4 µM | > 100 µM | 3.94 µM
